We go through 10 molecules from patent publication US6645690B2, “Photographic member with flexibilizer material” (Eastman Kodak Company, priority 2001, dated 2003).

Counter-ions that a name gives are not always drawn.

A short description of the first data set: Log P (octanol-water partition coefficient) of flexibilizer agents.
Details: not given
Turning to 2,3-dimethylpropanediol [FA2], the lipophilicity (Log P) was determined as 0.13.

A short description of another data set: physchem.
Details: not given
Take `COC(=O)c1ccc(O)cc1` [FA9, Methyl-4-hydroxybenzoate sodium salt, reference compound]: the logP is -1.34.

In turn, `CC(O)CCO` (stereo not shown) [FA1, 1,3-butanediol] displayed a log partition coefficient (logP) of -0.29.

As to `OCCO` [FA8, Ethylene glycol, reference compound], the logP was -1.2.

In the case of `OCCOCCO` [FA10, 2,2′-oxydiethanol, reference compound], the logP was -1.47.

On to `OCCOc1ccccc1` [FA6, 2-phenoxyethanol], for which the lipophilicity (logP) was 1.1.

Still in this data set, the particulars now being: octanol/water.
Regarding `CCCCC(CC)CO` (stereo not shown) [FA7, 2-ethyl-1-hexanol], the lipophilicity (logP) turned out to be 2.73.

`CCCCC(O)CO` (stereo not shown) [FA4, 1,2-hexanediol]: the logP is 0.69.

For `OCCCCCO` [FA3, 1,5-pentanediol], the lipophilicity (logP) amounted to 0.27.

As for `OCCCCCCO` [FA5, 1,6-hexanediol], the log partition coefficient (logP) amounted to 0.76.
